Laboratory results published in patent publication US10285989B2, “Pyrimidinone amide compounds as PDE2 inhibitors” (Merck Sharp & Dohme Corp., priority 2015, dated 2019).

target: human PDE2A1 (Homo sapiens (Human), UniProt O00408); test: PDE2 IMAP FP inhibition assay, human PDE2A1 (selectivity panel format); format: biochemical; details: @ 3 μM; Lab B; read-out: Human PDE2 % inhibition at a given concentration - Lab B
Protocol: Selectivity for PDE2, as compared to other PDE families, was assessed using the IMAP® technology. Human PDE10A2 enzyme was prepared from cytosolic fractions of transiently transfected HEK cells.
A Labcyte POD 810 (Labcyte, Sunnyvale, Calif.) was used to dispense 200 nL from each well of the titration plate to make eleven copies of the assay plate for each titration, one copy for each PDE enzyme. A solution of each enzyme (dilution from aliquots, sufficient to produce 20% substrate conversion) and a separate solution of FAM-labeled cAMP or FAM-labeled cGMP from Molecular Devices (Sunnyvale, Calif., product # R7506 or cGMP#R7508), at a final concentration of 50 nM were made in the assay buffer (10 mM Tris HCl, pH 7.2, 10 mM MgCl2, 0.05% NaN3 0.01% Tween-20, and 1 mM DTT). Note that the substrate for PDE2 is 50 nM FAM cAMP containing 1000 nM of cGMP. The enzyme and the substrate were then added to the assay plates in two consecutive additions of 10 μL and then shaken to mix. The reaction was allowed to proceed at room temperature for 60 minutes. A binding solution was then made from the kit components, comprised of 80% Solution A, 20% Solution B and binding reagent at a volume of 1/600 the total binding solution. The enzymatic reaction was stopped by addition of 60 μL of the binding solution to each well of the assay plate. The plates were sealed and shaken for 10 seconds. The plates were incubated at room temperature for one hour, then the parallel and perpendicular fluorescence was measured using a Tecan Genios Pro plate reader (Tecan, Switzerland). […] The intrinsic PDE2 inhibitory activity of a compound which may be used in accordance with the present invention may be determined by these assays. […]

human PDE2A1, sequence (O00408 other isoform, or with tags, fused parts or gaps): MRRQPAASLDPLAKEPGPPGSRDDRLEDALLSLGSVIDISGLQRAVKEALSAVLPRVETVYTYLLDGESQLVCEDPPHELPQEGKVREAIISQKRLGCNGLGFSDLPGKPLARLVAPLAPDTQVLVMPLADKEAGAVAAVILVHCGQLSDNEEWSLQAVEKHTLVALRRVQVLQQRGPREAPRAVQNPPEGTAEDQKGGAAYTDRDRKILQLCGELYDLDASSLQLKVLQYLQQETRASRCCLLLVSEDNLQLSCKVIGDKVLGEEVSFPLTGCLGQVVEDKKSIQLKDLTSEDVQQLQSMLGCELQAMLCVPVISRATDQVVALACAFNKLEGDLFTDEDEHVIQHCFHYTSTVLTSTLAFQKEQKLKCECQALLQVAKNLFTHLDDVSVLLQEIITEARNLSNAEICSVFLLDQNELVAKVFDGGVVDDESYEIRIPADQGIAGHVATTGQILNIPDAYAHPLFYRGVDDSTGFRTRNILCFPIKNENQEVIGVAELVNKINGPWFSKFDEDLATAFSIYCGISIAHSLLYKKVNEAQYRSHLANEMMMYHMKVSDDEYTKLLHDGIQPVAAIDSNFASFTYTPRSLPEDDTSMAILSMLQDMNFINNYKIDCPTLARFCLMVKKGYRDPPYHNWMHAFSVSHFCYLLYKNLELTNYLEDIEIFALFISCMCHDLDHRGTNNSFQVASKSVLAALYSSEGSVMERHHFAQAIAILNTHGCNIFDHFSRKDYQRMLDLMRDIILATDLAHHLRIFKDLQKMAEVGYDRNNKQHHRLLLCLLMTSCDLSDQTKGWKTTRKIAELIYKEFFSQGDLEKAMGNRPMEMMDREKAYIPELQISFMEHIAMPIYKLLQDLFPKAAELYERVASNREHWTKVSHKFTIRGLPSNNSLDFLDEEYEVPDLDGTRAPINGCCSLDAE

inhibition at 3 µM [%]	Compound
49	CN(C)c1nc(C(=O)NC(c2ccc(SC(F)(F)F)c(F)c2)C2(C)CC2)cc(=O)[nH]1 (single isomer, unassigned) [Example 119, (S)- or (R)-2-(dimethylamino)-N-[{3-fluoro-4-[(trifluoromethyl)sulfanyl]phenyl}(1-methylcyclopropyl)methyl]-6-oxo-1,6-dihydropyrimidine-4-carboxamide]
15	CC(NC(=O)c1cc(=O)[nH]c(N(C)C)n1)c1ccc(C(C)(C)C(F)(F)F)cc1 (single isomer, unassigned) [Example 121, (S)- or (R)-2-(dimethylamino)-6-oxo-N-{1-[4-(2,2,2-trifluoro-1,1-dimethylethyl)phenyl]ethyl}-1,6-dihydropyrimidine-4-carboxamide]
38	CC(NC(=O)c1cc(=O)[nH]c(N(C)C)n1)c1ccc(C2(C(F)(F)F)CC2)cc1 (single isomer, unassigned) [Example 125, (S)- or (R)-2-(dimethylamino)-6-oxo-N-[1-{4-[1-(trifluoromethyl)cyclopropyl]phenyl}ethyl]-1,6-dihydropyrimidine-4-carboxamide]

same assay, conditions: Lab B; read-out: Human PDE2 Ki (nM) - Lab B

Compound	Ki [nM]
CCC(C)(NC(=O)c1cc(=O)[nH]c(N(C)C)n1)c1ccc(C(F)(F)F)cc1F (single isomer, unassigned) [Example 129, (S)- or (R)-2-(dimethylamino)-N-{1-[2-fluoro-4-(trifluoromethyl)phenyl]-1-methylpropyl}-6-oxo-1,6-dihydro-pyrimidine-4-carboxamide]	5.5
COCC1CCN(c2nc(C(=O)N[C@@H](c3ccc(C(F)(F)F)cc3)C(C)(C)C)cc(=O)[nH]2)C1 (single isomer, unassigned) [Example 177, (S)- or (R)-N-{(1R)-2,2-dimethyl-1-[4-(trifluoromethyl)phenyl]propyl}-2-[3-(methoxymethyl)pyrrolidin-1-yl]-6-oxo-1,6-dihydropyrimidine-4-carboxamide]	0.46
C[C@H]1C[C@]1(NC(=O)c1cc(=O)[nH]c(N(C)C)n1)c1ccc(C(F)(F)F)cc1 (single isomer, unassigned; enantiomer a) [Example 174, 2-(dimethylamino)-N-{2-methyl-1-[4-(trifluoromethyl)phenyl]cyclopropyl}-6-oxo-1,6-dihydropyrimidine-4-carboxamide (cis, enantiomer A)]	2.7
C[C@H]1C[C@]1(NC(=O)c1cc(=O)[nH]c(N(C)C)n1)c1ccc(C(F)(F)F)cc1 (single isomer, unassigned; enantiomer b) [Example 175, 2-(dimethylamino)-N-{2-methyl-1-[4-(trifluoromethyl)phenyl]cyclopropyl}-6-oxo-1,6-dihydropyrimidine-4-carboxamide (cis, enantiomer B)]	0.92
CC(C)[C@@H](NC(=O)c1cc(=O)[nH]c(O)n1)c1ccc(SC(F)(F)F)cc1 [Example 20, (R)-2-hydroxy-N-(2-methyl-1-(4-((trifluoromethyl)thio)phenyl)propyl)-6-oxo-1,6-dihydropyrimidine-4-carboxamide]	329
CN(C)c1nc(C(=O)NC2(c3ccc(OC(C)(C)C)cc3)CC2)cc(=O)[nH]1 [Example 50, N-[1-(4-tert-butoxyphenyl)cyclopropyl]-2-(dimethylamino)-6-oxo-1,6-dihydropyrimidine-4-carboxamide]	27
CN(C)c1nc(C(=O)NC2(c3ccc(CC(F)(F)F)cc3)CC2)cc(=O)[nH]1 [Example 51, 2-(dimethylamino)-6-oxo-N-{1-[4-(2,2,2-trifluoroethyl)phenyl]cyclopropyl}-1,6-dihydropyrimidine-4-carboxamide]	9.7
CN(C)c1nc(C(=O)N[C@@H](c2ccc(OC(F)F)c(F)c2)C2CC2)cc(=O)[nH]1 [Example 53, N-{(R)-cyclopropyl[4-(difluoromethoxy)-3-fluorophenyl]methyl}-2-(dimethylamino)-6-oxo-1,6-dihydropyrimidine-4-carboxamide]	4
CC[C@@H](NC(=O)c1cc(=O)[nH]c(N(C)C)n1)c1ccc(C(F)F)cc1 [Example 67, N-{(1R)-1-[4-(difluoromethyl)phenyl]propyl}-2-(dimethylamino)-6-oxo-1,6-dihydropyrimidine-4-carboxamide]	6.9
CC[C@@H](NC(=O)c1cc(=O)[nH]c(N(C)C)n1)c1ccc(C(F)F)c(F)c1 [Example 68, N-{(1R)-1-[4-(difluoromethyl)-3-fluorophenyl]propyl}-2-(dimethylamino)-6-oxo-1,6-dihydropyrimidine-4-carboxamide]	12
CN(C)c1nc(C(=O)NC(C)(C)c2ccc(C(F)F)c(F)c2)cc(=O)[nH]1 [Example 69, N-{1-[4-(difluoromethyl)-3-fluorophenyl]-1-methylethyl}-2-(dimethylamino)-6-oxo-1,6-dihydropyrimidine-4-carboxamide]	10
CN(C)c1nc(C(=O)NC2(c3ccc(C(F)F)c(F)c3)CC2)cc(=O)[nH]1 [Example 70, N-{1-[4-(difluoromethyl)-3-fluorophenyl]cyclopropyl}-2-(dimethylamino)-6-oxo-1,6-dihydropyrimidine-4-carboxamide]	9.7
C[C@@H](NC(=O)c1cc(=O)[nH]c(N(C)C)n1)c1ccc(C(C)(F)F)cc1 [Example 74, N-{(1R)-1-[4-(1,1-difluoroethyl)phenyl]ethyl}-2-(dimelhylamino)-6-oxo-1,6-dihydropyrimidine-4-carboxamide]	3.9
CC(C)[C@@H](NC(=O)c1cc(=O)[nH]c(N(C)C)n1)c1ccc(C(C)(F)F)cc1 [Example 75, N-{(1R)-1-[4-(1,1-difluoroethyl)phenyl]-2-methylpropyl}-2-(dimethylamino)-6-oxo-1,6-dihydropyrimidine-4-carboxamide]	0.39
C[C@@H](NC(=O)c1cc(=O)[nH]c(N(C)C)n1)c1ccc(S(F)(F)(F)(F)F)cc1F [Example 116, (R)-2-(dimethylamino)-N-(1-(4-(pentafluorothio)-2-fluorophenyl)ethyl)-6-oxo-1,6-dihydropyrimidine-4-carboxamide]	749

More lines, now with the values ahead:

Ki [nM]	Compound
34	CC(NC(=O)c1cc(=O)[nH]c(N(C)C)n1)c1ccc(C(C)(C)C(F)(F)F)cc1 (single isomer, unassigned) [Example 122, (R)- or (S)-2-(dimethylamino)-6-oxo-N-{1-[4-(2,2,2-trifluoro-1,1-dimethylethyl)phenyl]ethyl}-1,6-dihydropyrimidine-4-carboxamide]
167	CN(C)c1nc(C(=O)NC(c2ccc(C3(C)CC3)c(F)c2)C(C)(C)C)cc(=O)[nH]1 (single isomer, unassigned) [Example 123, (S)- or (R)-2-(dimethylamino)-N-{1-[3-fluoro-4-(1-methylcyclopropyl)phenyl]-2,2-dimethylpropyl}-6-oxo-1,6-dihydropyrimidine-4-carboxamide]
16	CC(NC(=O)c1cc(=O)[nH]c(N(C)C)n1)c1ccc(C2(C(F)(F)F)CC2)cc1 (single isomer, unassigned) [Example 126, (R)- or (S)-2-(dimethylamino)-6-oxo-N-[1-{4-[1-(trifluoromethyl)cyclopropyl]phenyl}ethyl]-1,6-dihydropyrimidine-4-carboxamide]
527	CN(C)c1nc(C(=O)NC(c2ccc(S(F)(F)(F)(F)F)cc2F)C(C)(C)C)cc(=O)[nH]1 (single isomer, unassigned) [Example 127, (S)- or (R)-2-(dimethylamino)-N-{1-[2-fluoro-4-(pentafluoro-λ^6-sulfanyl)phenyl]-2,2-dimethylpropyl}-6-oxo-1,6-dihydropyrimidine-4-carboxamide]
2.7	CN(C)c1nc(C(=O)NC2(c3ccc(C(F)(F)F)cc3F)CC2)cc(=O)[nH]1 [Example 49, 2-(dimethylamino)-N-{1-[2-fluoro-4-(trifluoromethyl)phenyl]cyclopropyl}-6-oxo-1,6-dihydropyrimidine-4-carboxamide]
11	CN(C)c1nc(C(=O)NC2(c3ccc(OC(F)F)cc3)CC2)cc(=O)[nH]1 [Example 52, N-{1-[4-(difluoromethoxy)phenyl]cyclopropyl}-2-(dimethylamino)-6-oxo-1,6-dihydropyrimidine-4-carboxamide]
2.2	CC(C)[C@@H](NC(=O)c1cc(=O)[nH]c(N(C)C)n1)c1ccc(C(F)F)c(F)c1 [Example 65, N-{(1R)-1-[4-(difluoromethyl)-3-fluorophenyl]-2-methylpropyl}-2-(dimethylamino)-6-oxo-1,6-dihydropyrimidine-4-carboxamide]
17	CN(C)c1nc(C(=O)N[C@H](c2ccc(C(F)(F)F)cc2)C(C)(C)C)cc(=O)[nH]1 [Example 72, 2-(dimethylamino)-N-{(1S)-2,2-dimethyl-1-[4-(trifluoromethyl)phenyl]propyl}-6-oxo-1,6-dihydropyrimidine-4-carboxamide]
21	CN(C)c1nc(C(=O)NC(C)(C)c2ccc(OC(F)(F)F)cc2F)cc(=O)[nH]1 [Example 81, 2-(dimethylamino)-N-{1-[2-fluoro-4-(trifluoromethoxy)phenyl]-1-methylethyl}-6-oxo-1,6-dihydropyrimidine-4-carboxamide]
